Measured values published in patent US20120004282A1, “RNA Interference Mediated Inhibition of the Intercellular Adhesion Molecule 1 (ICAM-1) Gene Expression Using Short Interfering Nucleic Acid (siNA)” (Merck Sharp & Dohme Corp,, priority 2009, published 2012).
[invAb] = inverted abasic unit; m = 2'-O-methyl; r = 2'-OH (RNA); f = 2'-fluoro

What was measured:
[1] = test system: human ICAM-2 mRNA transcript; assay: ICAM-2 mRNA specificity screen in human cells (Taqman RT-PCR); format: cell-based; settings: mean ± S.D., three independent experiments
Description: Calu-1 (human; ATCC cat# HTB-54): Cells were cultured at 37° C. in the presence of 5% CO2 and grown in McCoy's 5a medium supplemented with fetal bovine serum at a final concentration of 10% and 100 μg/mL of streptomycin and 100 U/mL penicillin.
Calu-1 cells were plated in all wells of a tissue-culture treated, 96-well plate at final counts of 5,000 cells/well in 100 μL of appropriate culture media. Cells were cultured for 24 hours after plating at 37° C. in the presence of 5% CO2.
After 24 hours, complexes containing siNA and RNAiMax were created as follows. A solution of RNAiMax diluted 33-fold in OPTI-MEM was prepared. In parallel, solutions of the siNAs for testing were prepared to a final concentration of 120 nM in OPTI-MEM. After incubation of RNAiMax/OPTI-MEM solution at room temperature for 5 min, an equal volume of the siNA solution and the RNAiMax solution were added together for each of the siNAs. […] This solution was incubated at room temperature for 20 minutes. After incubation, 20 uL of the solution was added to each of the relevant wells. The final concentration of siNA in each well was 10 nM and the final volume of RNAiMax in each well was 0.3 uL.
A series of probes and primers were used to detect the various mRNA transcripts of the genes of ICAM-1 and ICAM-2 in human cell lines (see Table 2). All the Taqman probes and primers for the experiments here-in described were supplied as pre-validated sets by Applied Biosystems, Inc., (see Table 2). The assays were performed on an ABI 7900 instrument, according to the manufacturer's instructions.
A TaqMan Gene Expression Master Mix (provided in the Cells-to-CT™, Applied Biosystems, Cat # 4399002) was used. The PCR reactions were carried out at 50° C. for 2 min, 95° C. for 20 min followed by 40 cycles at 95° C. for 15 secs and 60° C. for 1 min.
The expression level of the gene of interest and % knock-down was calculated using Comparative Ct method: […]
The non-targeting control siNA was, unless otherwise indicated, chosen as the value against which to calculate the % knock-down, because it is the most relevant control.
The specificity the six siNAs in Table 4 was also assessed. The siNAs were tested at 1 nM concentration to determine the effect of the ICAM-1 siNAs on the mRNA transcript of human ICAM-2.

ICAM-1 protein = assay: In situ ICAM-1 ELISA for surface ICAM-1 in INF-γ/TNF-α stimulated Calu-1 cells; format: cell-based, human; settings: relative to UC3
Description: In a 96-well plate, 5,000 Calu-1 cells/well were seeded in 100 uL of complete growth media and incubated overnight at 37 C with 5% CO2. The cells were transfected with siNAs using RNAiMax (Invitrogen, Cat# 13778-150); final concentrations of siRNAs are 10 nM-0.0000097 nM. The amount of RNAiMax in each well is 0.3 uL. The siNAs were incubated for 6 hours. The medium was replaced with 95 uL of fresh complete growth medium and add 5 uL/well of INF-γ/TNF-α at 10 ng/ml final concentration. The cells were incubated for 24, 48, and 72 hours.
In situ ELISA for surface ICAM-1 was performed as follows. The cells were washed ×2 in PBS. The wells were pre-blocked with Super Block buffer (Pierce, Cat # 37535) for 1.5 hours at 37° C. The cells were washed ×3 with PBS. The primary monoclonal antibody (Abcam, clone MEM-111, Cat ab2213) was diluted at 1 in 3000 in Super Block buffer. 50 μl of primary antibody was added per well. The wells were shook gently at RT for 1 hour. The cells were washed ×3 with PBS. The rabbit polyclonal secondary antibody (Abcam, Cat ab6728)was diluted 1:1000 in Super Block buffer. 50 μl secondary antibody were added per well. The mixture was incubated at 37° C. for 1 hour. The cells were washed ×3 with PBS. 50 μl of TMB solution (Sigma, Cat# T-8665) was added per well and incubated in the dark for 10 minutes. 50 μl Stop solution was added. The absorbance was read at 450 nm.
The effects of siNAs on ICAM-1 protein level were compared to each other and to the effect of the universal control using a multiple comparison ANOVA test to obtain a 95% confidence interval.
Various siNAs were also evaluated for their potential to knock-down ICAM-1 protein using an ELISA assay. Six siNAs were tested in an ICAM-1 ELISA assay across a range of concentrations of siNAs. The absorbance of each sample was normalized to the average absorbance obtained from the wells that were not stimulated with INF-γ/TNF-α (n=6). These wells served as a background control (see Table 6).

OAS1 mRNA [2] = assay: Endosomal TLR3 mediated immunostimulation, OAS1 mRNA increase in NHBE cells; format: cell-based, human; settings: Up to 100 nM, siNA formulated with delivery vehicle
Description: (§1) A series of probes and primers were used for the detection of mRNA transcripts of ICAM-1, OAS1, and GAPDH (as control/normalisation) in the human cell lines. The assays were performed on an ABI 7900HT instrument according to the manufacturer's instructions.
(§2) With TaqMan data, critical threshold values (Ct) were converted to copy numbers corresponding to the particular gene analysed in each well of the 384 well plate. Six identical wells were prepared in each plate for a given treatment. […] Determination of the percentage coefficient of variation (CV) (% C.V.=[standard deviation/average]*100) allowed the omitting of wells whose value was an outlier (so that % C.V.<25). Relative abundance (aka relative expression) of a gene was determined by dividing the mean copy number of that gene with its GAPDH counterpart in that particular sample.
(§3) Calu-1 or NHBE cell were treated as above in Example 2 and used for the measurement of endosomal TLR3 mediated immunostimulation, with the inclusion of polyI:C as a positive control for OAS1 mRNA upregulation. For the measurement of membrane bound TLR3 mediated immunostimulation the Calu 1 cells were cultured at 12000 cells/per 96 well and siNAs administered in PBS in the absence of a delivery vehicle at a concentration of 100 nM, 30 nM, 10 nM, 3 nM, 1 nM, and 0.3 nM.
The endosomal TLR3 mediated immunostimulation was also measured by recording the percent increase in OAS1 mRNA levels when the NHBE cells were transfected with the siNAs that had been formulated with the delivery vehicle (the Gemini surfactant GSC170 Dab—example 37 in WO03/82809) (percent increase in OAS1 mRNA levels relative to the Gemini delivery vehicle control). The TLR3 agonist Poly I: C is used as a positive control for OAS1 mRNA induction.

OAS1 mRNA [3] = assay: Membrane and endosomal TLR3 mediated immunostimulation, OAS1 mRNA increase in Calu 1 cells; format: cell-based, human; settings: Up to 100 nM
Description: Human lung epithelial carcinoma (Calu-1) cells were grown at 37 degrees in the presence of 5% CO2 and cultured in […] supplemented with 10% fetal bovine serum, glutamine and antibiotics.
as §1, §2, §3

Substance	% KD ICAM-2 1 nM [1]	ICAM-1 Protein % KD 24 h, 10 nM (ICAM-1 protein)	ICAM-1 Protein % KD 48 h, 10 nM (ICAM-1 protein)	ICAM-1 Protein % KD 72 h, 10 nM (ICAM-1 protein)	Endosomal TLR3 mediated Immunostimulation OAS1 mRNA increase NHBE cells n = 3donors (OAS1 mRNA [2])	Membrane & Endosomal TLR3 mediated Immunostimulation OAS1 mRNA increase Calu 1 Cells (OAS1 mRNA [3])
29284-DC: siNA duplex, ICAM-1 target site 1141 (h); sense B cucAGucAGuGuGAccGcA TTB; antisense UGCGGucAcAcuGAcuGAGUU (sense CUCAGUCAGUGUGACCGCATT; antisense UGCGGUCACACUGACUGAGUU; sense: DNA at AGT, 2'-fluoro at CU, [invAb] at 5' end, 3' end, backbone not given here; antisense: sugars from the 5' end rrrmmffmfmffmmffmmmmm, backbone not given here)	6 ± 11%	64%	53%	44%	No significant effect	No significant effect
29285-DC: siNA duplex, ICAM-1 target site 537 (h); sense B GGAAcAAccGGAAGGuGuA TTB; antisense UACAccuuccGGuuGuuccUU (sense GGAACAACCGGAAGGUGUATT; antisense UACACCUUCCGGUUGUUCCUU; sense: DNA at AGT, 2'-fluoro at CU, [invAb] at 5' end, 3' end, backbone not given here; antisense: sugars from the 5' end rrrmffffffmmffmffffmm, backbone not given here)	11 ± 7%	59%	52%	36%	No significant effect	No significant effect
48722-DC: siNA duplex, ICAM-1 target site 2240 (h); sense B GAcAuAcAAcuGGGAAAuA TTB; antisense UAUuucccAGuuGuAuGucUU (sense GACAUACAACUGGGAAAUATT; antisense UAUUUCCCAGUUGUAUGUCUU; sense: DNA at AGT, 2'-fluoro at CU, [invAb] at 5' end, 3' end, backbone not given here; antisense: sugars from the 5' end rrrfffffmmffmfmfmffmm, backbone not given here)	−15 ± 29%	71%	53%	43%	No significant effect	No significant effect
29288-DC: siNA duplex, ICAM-1 target site 2046 (h); sense B cAuuGuccucAGucAGAuA TTB; antisense UAUcuGAcuGAGGAcAAuGUU (sense CAUUGUCCUCAGUCAGAUATT; antisense UAUCUGACUGAGGACAAUGUU; sense: DNA at AGT, 2'-fluoro at CU, [invAb] at 5' end, 3' end, backbone not given here; antisense: sugars from the 5' end rrrffmmffmmmmrfmmfmmm, backbone not given here)	−9 ± 18%	52%	52%	47%	No significant effect	No significant effect
29282-DC: siNA duplex, ICAM-1 target site 2113 (h); sense B cGcAucuGAucuGuAGucA TTB; antisense UGAcuAcAGAucAGAuGcGUU (sense CGCAUCUGAUCUGUAGUCATT; antisense UGACUACAGAUCAGAUGCGUU; sense: DNA at AGT, 2'-fluoro at CU, [invAb] at 5' end, 3' end, backbone not given here; antisense: sugars from the 5' end rrrffmfmmmffmmmfmfmmm, backbone not given here)	3 ± 6%	87%	64%	61%	No significant effect	No significant effect
29286-DC: siNA duplex, ICAM-1 target site 1838 (h); sense B cGGAAGAucAAGAAAuAcA TTB; antisense UGUAuuucuuGAucuuccGUU (sense CGGAAGAUCAAGAAAUACATT; antisense UGUAUUUCUUGAUCUUCCGUU; sense: DNA at AGT, 2'-fluoro at CU, [invAb] at 5' end, 3' end, backbone not given here; antisense: sugars from the 5' end rrrmffffffmmffffffmmm, backbone not given here)	−3 ± 14%	59%	54%	43%	No significant effect	No significant effect
